Test results taken from the SangsterLogP compilation.

Test: method code SF-AS, from DOI: 10.1080/02772249909358822

SMILES | logP
CC(C)OP(=O)(ON=C(C#N)c1csc2ccccc12)OC(C)C | 1.56
COP(=S)(OC)ON=C(C#N)c1csc2ccccc12 | 1.94
CC(C)OP(=S)(O/N=C(/C#N)c1ccccc1)OC(C)C | 2.07
COc1ccc(C(C#N)=NOP(=O)(OC(C)C)OC(C)C)cc1OC | -0.38
CCOP(=S)(OCC)ON=C(C#N)c1ccc(OC)c(OC)c1 | -0.19
CCOP(=S)(OCC)ON=C(C#N)c1ccc(F)cc1 | 0.35
CCCOP(=O)(OCCC)ON=C(C#N)c1csc2ccccc12 | 1.67
COc1ccc(C(C#N)=NOP(=S)(OC(C)C)OC(C)C)cc1OC | 0.47
COP(=O)(OC)ON=C(C#N)c1csc2ccccc12 | 0.76
COP(=O)(OC)ON=C(C#N)c1ccc(F)cc1 | -1.08
COP(=O)(OC)O/N=C(/C#N)c1ccccc1 | -1.01
CC(C)OP(=O)(ON=C(C#N)c1ccc(Cl)cc1)OC(C)C | -0.2
CCOP(=S)(OCC)ON=C(C#N)c1ccc(Cl)cc1 | 0.47
CC(C)OP(=O)(ON=C(C#N)c1ccc(F)cc1)OC(C)C | -0.43
COC(=O)c1oc2ccccc2c1C(C#N)=NOP(=O)(OC(C)C)OC(C)C | 1.36
CCOP(=O)(OCC)ON=C(C#N)c1csc2ccccc12 | 0.56
CC(C)OP(=O)(O/N=C(/C#N)c1ccccc1)OC(C)C | 0.06
CCCCOP(=O)(OCCCC)ON=C(C#N)c1csc2ccccc12 | 2.73
CCOP(=S)(OCC)ON=C(C#N)c1csc2ccccc12 | 2.56
